“And” between values parts separate entries of the source, which are not always exact repeats. Identical values can stand only once.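 Assay format: 96-well plates, 48-hour exposure. GI50: concentration for 50% inhibition of growth. TGI marks complete inhibition of growth.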
Experiments:
Test in all cases: growth of human tumour cells (NCI), 48 h
HCT-116 colon = test system: HCT-116 colon
BT-549 breast = test system: BT-549 breast
ACHN renal = test system: ACHN renal
NCI-H522 lung = test system: NCI-H522 lung
NCI-H460 lung = test system: NCI-H460 lung
DU-145 prostate = test system: DU-145 prostate
UACC-257 melanoma = test system: UACC-257 melanoma
A549 NSCLC = test system: A549 NSCLC
OVCAR-5 ovarian = test system: OVCAR-5 ovarian
MALME-3M melanoma = test system: MALME-3M melanoma

Row | SMILES | TGI (HCT-116 colon) [µM] | TGI (BT-549 breast) [µM] | TGI (ACHN renal) | TGI (NCI-H522 lung) | TGI (NCI-H460 lung) [µM] | TGI (DU-145 prostate) [µM] | TGI (UACC-257 melanoma) | TGI (A549 NSCLC) [µM] | TGI (OVCAR-5 ovarian) [µM] | GI50 (HCT-116 colon) | GI50 (BT-549 breast) [µM] | GI50 (ACHN renal) | GI50 (NCI-H522 lung) | GI50 (NCI-H460 lung) | GI50 (DU-145 prostate) | GI50 (A549 NSCLC) | GI50 (OVCAR-5 ovarian) [µM] | GI50 (MALME-3M melanoma) [µM] | TGI (MALME-3M melanoma) | GI50 (UACC-257 melanoma) [µM]
1 | Oc1ccc(C=Nc2ccccc2O)cc1 | > 100 | > 100 | > 100 µM | > 100 µM | > 100 | 31.6 | 65.3 µM | > 100 | > 100 |  |  |  |  |  |  |  |  |  |  | 
2 | CC[C@H](C)[C@H](NC(=O)[C@H]1CCCCN1C)C(=O)N(C)[C@H](C[C@@H](OC(C)=O)c1cccc(C(=O)N[C@@H](Cc2ccccc2)C[C@H](C)C(=O)OC)n1)C(C)C | > 25 | 0.222 | > 25 µM | 0.00894 µM | > 25 | > 25 |  | > 25 | > 25 | 0.00325 µM and 0.0025 µM | 0.0025 | 0.00638 µM and 0.013 µM | 0.00154 µM and 0.0025 µM | 0.0038 µM and 0.0025 µM | 0.00282 µM and 0.0025 µM | 0.0377 µM and 0.00974 µM | 0.0137 |  |  | 
3 | C=C(c1ccc(OC)c(/C=C/C(=O)c2ccc3c(c2)OCO3)c1)c1cc(OC)c(OC)c(OC)c1 |  | 7.27 |  | 4.78 µM | 6.21 | > 100 | > 100 µM | > 100 | > 100 |  | 2.15 |  | 1.55 µM | 2.34 µM | 5.54 µM | 3.54 µM | 4.4 | > 100 | > 100 µM | 6.69
4 | O=C(O)CSc1n[nH]c(=O)[nH]c1=O | > 100 | > 100 | > 100 µM | > 100 µM | > 100 | > 100 |  | > 100 | > 100 |  |  |  |  |  |  |  |  |  | > 100 µM | 
5 | CN[C@H]1CN(c2ccc3c(=O)c(C(=O)O)cn(-c4nccs4)c3n2)C[C@@H]1OC | 4.58 | 3.05 |  | 2.98 µM | 1.53 | 5.28 | 2.83 µM | 2.76 | 6.45 | 0.437 µM | 0.758 |  | 0.733 µM | 0.133 µM | 1.28 µM | 0.511 µM | 2.31 | 0.516 | 2.27 µM | 1.11
6 | COc1ccc(C2(Cl)c3ccccc3N(c3ccccc3)c3ccccc32)cc1 |  | 1.42 | 10.1 µM | 2.94 µM | 1.94 | 2.04 | 3.67 µM | 2.9 | 7.64 |  | 0.211 | 0.598 µM | 0.444 µM | 0.484 µM | 0.536 µM | 0.407 µM | 2.19 | 0.298 | 1.66 µM | 0.797
7 | O=C(CSc1nc2c(n1Nc1ccccc1)-c1ccccc1SC2)Nc1nc(-c2ccc(Cl)cc2)cs1 | > 100 | > 100 | > 100 µM | > 100 µM |  | > 100 | > 100 µM |  | > 100 | 6.37 µM | 33.5 | 35.4 µM | 5.73 µM |  | > 100 µM |  | > 100 |  |  | > 100
8 | COC(=O)[C@@H]1c2cc3c(c(O)c2[C@@H](OC2OC(C)C(OC)C(C)(OC)C2OC)C[C@]1(C)O)C(=O)c1c(O)cc2c(c1C3=O)O[C@H]1O[C@]2(C)[C@H](O)[C@@H](N(C)C)[C@@H]1O (stereo not given in full) |  | 0.0588 | 0.951 µM and 5.37 µM | 0.0638 µM and 0.0131 µM | 0.0336 | 0.455 | 0.0638 µM and 0.0472 µM | 10.3 |  |  |  | 0.0114 µM |  |  |  |  | 0.0651 |  | 0.0666 µM and 0.0545 µM | 0.0123
9 | COc1cc(/C=C2\CC3C4CC=C5C[C@@H](OC(C)=O)CC[C@]5(C)C4CC[C@]3(C)C2=O)ccc1OCCN1CCCCC1 (stereo not given in full) |  | 31.7 | 14.4 µM | 25.7 µM | 11.6 | 17.4 | > 100 µM | > 100 | 7.42 |  | 15.1 | 3.64 µM | 7.28 µM | 3.02 µM | 5.18 µM | 3.42 µM | 3.83 | 1.66 | 3.35 µM | 3.85
10 | Cc1cc2nc(NCCN)n(Cc3ccc(F)c(Cl)c3)c2cc1C | 4.7 | 30.2 | 24.7 µM | 35.1 µM | 10.4 | 27.4 |  | 32.2 | 28.3 | 2.29 µM | 14.8 | 11.2 µM | 19.5 µM | 3.2 µM | 14.1 µM | 17.8 µM | 13.7 | 1.83 | 4.19 µM | 
11 | Cc1ccc(O)c(NC(=O)c2cccc(Nc3ccnc(C(F)(F)F)c3)c2)c1 | 17.8 | 21.6 | 48.8 µM | 5.84 µM | 35.3 | 71.5 |  | 28 | 36 | 4.14 µM | 3.18 | 9.65 µM | 1.23 µM | 10.4 µM | 16.4 µM | 5.09 µM | 13 | 19.2 | 78.5 µM | 

From PubChem BioAssay (NCI)
